From patent US7479493B2, “Substituted benzyl amine compounds” (Janssen Pharmaceutica N.V., priority 2006, dated 2009)

Experiments:
cloned human H3 receptor = cloned human H3 receptor (Homo sapiens, UniProt Q9Y5N1); test: H3 Receptor Binding; conditions: cloned human H3 receptor stably expressed in SK-N-MC cells
Rat SERT = Rat SERT (Rattus norvegicus, UniProt P31652); test: biochemical
Rat SERT, sequence (P31652 whole entry): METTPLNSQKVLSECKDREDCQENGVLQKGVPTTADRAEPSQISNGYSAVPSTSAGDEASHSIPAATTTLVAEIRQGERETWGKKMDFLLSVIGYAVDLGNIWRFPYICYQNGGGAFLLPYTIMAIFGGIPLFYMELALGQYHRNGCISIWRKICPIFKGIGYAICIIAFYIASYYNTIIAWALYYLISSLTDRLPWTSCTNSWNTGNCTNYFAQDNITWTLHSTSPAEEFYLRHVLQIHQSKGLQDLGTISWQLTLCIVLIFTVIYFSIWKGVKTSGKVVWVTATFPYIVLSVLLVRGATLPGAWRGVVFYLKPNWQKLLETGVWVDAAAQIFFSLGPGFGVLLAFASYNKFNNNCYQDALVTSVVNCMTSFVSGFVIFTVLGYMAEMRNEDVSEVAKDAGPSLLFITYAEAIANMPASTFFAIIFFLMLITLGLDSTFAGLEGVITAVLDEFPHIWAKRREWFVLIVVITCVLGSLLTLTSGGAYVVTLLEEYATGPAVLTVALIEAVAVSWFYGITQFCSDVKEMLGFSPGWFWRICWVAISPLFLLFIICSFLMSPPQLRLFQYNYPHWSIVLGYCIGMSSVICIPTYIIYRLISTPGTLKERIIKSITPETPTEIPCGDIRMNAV
Description: The supernatant was removed and re-centrifuged at 15,000 rpm for 30 min. […] Membranes were incubated with 0.6 nM [^3H]-Citalopram plus/minus test compounds for 60 min at 25° C. and harvested by rapid filtration over GF/C glass fiber filters (pretreated with 0.3% polyethylenimine) followed by four washes with ice-cold buffer. Nonspecific binding was defined in the presence of 100 μM fluoxetine.

cloned human H3 receptor, sequence (Q9Y5N1 whole entry): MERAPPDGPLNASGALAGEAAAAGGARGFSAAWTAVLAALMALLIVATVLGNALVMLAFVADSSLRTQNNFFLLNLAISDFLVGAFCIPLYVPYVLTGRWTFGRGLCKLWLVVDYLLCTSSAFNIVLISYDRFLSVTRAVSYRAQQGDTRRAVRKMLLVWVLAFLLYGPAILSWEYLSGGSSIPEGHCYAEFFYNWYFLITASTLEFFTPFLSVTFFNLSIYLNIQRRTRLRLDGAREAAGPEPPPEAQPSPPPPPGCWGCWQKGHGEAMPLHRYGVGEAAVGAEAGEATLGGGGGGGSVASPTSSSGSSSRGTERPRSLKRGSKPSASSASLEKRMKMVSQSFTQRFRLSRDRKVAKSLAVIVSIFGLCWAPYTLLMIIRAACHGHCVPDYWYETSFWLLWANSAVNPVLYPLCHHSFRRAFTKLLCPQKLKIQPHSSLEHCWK

Compound	Ki (cloned human H3 receptor) [µM]	Ki (Rat SERT) [µM]
CNCc1cc(C(=O)N2CCN(C3CC3)CC2)ccc1Oc1ccc(C)nc1 [Example 20, (4-Cyclopropyl-piperazin-1-yl)-[3-methylaminomethyl-4-(6-methyl-pyridin-3-yloxy)-phenyl]-methanone]	0.059	0.19
CNCc1cc(C(=O)N2CCN(C3CC3)CC2)ccc1Oc1ccc(F)c(Cl)c1 [Example 21, [4-(3-Chloro-4-fluoro-phenoxy)-3-methylaminomethyl-phenyl]-(4-cyclopropyl-piperazin-1-yl)-methanone]	0.032	0.019
CNCc1cc(C(=O)N2CCC(N3CCOCC3)CC2)ccc1Oc1ccc(SC)cc1 [Example 23, [3-Methylaminomethyl-4-(4-methylsulfanyl-phenoxy)-phenyl]-(4-morpholin-4-yl-piperidin-1-yl)-methanone]	0.05	0.003
CNCc1cc(C(=O)N2CCN(C3CC3)CC2)ccc1Oc1cccc(Cl)c1F [Example 24, [4-(3-Chloro-2-fluoro-phenoxy)-3-methylaminomethyl-phenyl]-(4-cyclopropyl-piperazin-1-yl)-methanone]	0.031	0.13
CNCc1cc(C(=O)NCCN(C)C)ccc1Oc1cccc(Cl)c1 [Example 26, 4-(3-Chloro-phenoxy)-N-(2-dimethylamino-ethyl)-3-methylaminomethyl-benzamide]	0.1	0.003
CNCc1cc(C(=O)NCCCN(C)C)ccc1Oc1cccc(Cl)c1 [Example 27, 4-(3-Chloro-phenoxy)-N-(3-dimethylamino-propyl)-3-methylaminomethyl-benzamide]	0.048	0.0008
CNCc1cc(C(=O)N2CCN(C3CC3)CC2)ccc1Sc1ccc(Cl)cc1 [Example 28, [4-(4-Chloro-phenylsulfanyl)-3-methylaminomethyl-phenyl]-(4-cyclopropyl-piperazin-1-yl)-methanone]	0.15	–
CNCc1cc(C(=O)N2CCN(C3CC3)CC2)ccc1Sc1ccccn1 [Example 29, (4-Cyclopropyl-piperazin-1-yl)-[3-methylaminomethyl-4-(pyridin-2-ylsulfanyl)-phenyl]-methanone]	0.17	–
CNCc1cc(N2CCN(C)CC2)ccc1Oc1ccc(SC)cc1 [Example 41, Methyl-[5-(4-methyl-piperazin-1-yl)-2-(4-methylsulfanyl-phenoxy)-benzyl]-amine]	0.21	0.0004
CNCc1cc(N2CCN(c3ccncc3)CC2)ccc1Oc1ccc(SC)cc1 [Example 43, Methyl-[2-(4-methylsulfanyl-phenoxy)-5-(4-pyridin-4-yl-piperazin-1-yl)-benzyl]-amine]	0.11	0.0007
CNCc1cc(N2CCN(CCF)CC2)ccc1Oc1ccc(SC)cc1 [Example 44, [5-[4-(2-Fluoro-ethyl)-piperazin-1-yl]-2-(4-methylsulfanyl-phenoxy)-benzyl]-methyl-amine]	0.16	0.0005
CNCc1cc(N2CCN(C3CC3)CC2)ccc1Oc1ccc(SC)cc1 [Example 45, [5-(4-Cyclopropyl-piperazin-1-yl)-2-(4-methylsulfanyl-phenoxy)-benzyl]-methyl-amine]	0.076	0.001
CNCc1cc(N2CCN(C3CC3)CC2)ccc1Oc1ccc(Cl)c(Cl)c1 [Example 46, [5-(4-Cyclopropyl-piperazin-1-yl)-2-(3,4-dichloro-phenoxy)-benzyl]-methyl-amine]	0.049	0.004
CNCc1cc(N2CCNCC2=O)ccc1Oc1ccc(SC)cc1 [Example 48, 1-[3-Methylaminomethyl-4-(4-methylsulfanyl-phenoxy)-phenyl]-piperazin-2-one]	5.5	0.0004
CNCc1cc(N2CCN(C(C)C)CC2=O)ccc1Oc1ccc(SC)cc1 [Example 49, 4-Isopropyl-1-[3-methylaminomethyl-4-(4-methylsulfanyl-phenoxy)-phenyl]-piperazin-2-one]	0.4	0.002
CNCc1cc(N2CCN(C(C)C)CC2=O)ccc1Oc1ccc(Cl)c(Cl)c1 [Example 50, 1-[4-(3,4-Dichloro-phenoxy)-3-methylaminomethyl-phenyl]-4-isopropyl-piperazin-2-one]	0.15	0.007
CNCc1cc(N2CCC(N3CCOCC3)CC2)ccc1Oc1ccc(SC)cc1 [Example 51, Methyl-[2-(4-methylsulfanyl-phenoxy)-5-(4-morpholin-4-yl-piperidin-1-yl)-benzyl]-amine]	0.028	0.002
CNCc1cc(N2CCCN(C3CC3)CC2)ccc1Oc1ccc(SC)cc1 [Example 53, [5-(4-Cyclopropyl-[1,4]diazepan-1-yl)-2-(4-methylsulfanyl-phenoxy)-benzyl]-methyl-amine]	0.028	0.006
COCCN(CCOC)Cc1ccc(C(=O)N2CCN(C3CC3)CC2)cc1Oc1ccc(C)nc1C [Example 82, [4-{[Bis-(2-methoxy-ethyl)-amino]-methyl}-3-(2,6-dimethyl-pyridin-3-yloxy)-phenyl]-(4-cyclopropyl-piperazin-1-yl)-methanone]	0.2	–
CN(C)Cc1ccc(C(=O)N2CCCCC2)cc1Oc1ccccc1 [Example 84, (4-Dimethylaminomethyl-3-phenoxy-phenyl)-piperidin-1-yl-methanone]	4.5	–
COCCN(CCOC)Cc1ccc(C(=O)N2CCC(N(C)C)CC2)cc1Oc1cccnc1 [Example 86, [4-{[Bis-(2-methoxy-ethyl)-amino]-methyl}-3-(pyridin-3-yloxy)-phenyl]-(4-dimethylamino-piperidin-1-yl)-methanone]	0.2	–
CC(C)N1CCN(Cc2ccc(C(=O)N3CCCCC3)cc2Oc2ccccc2)CC1 [Example 87, [4-(4-Isopropyl-piperazin-1-ylmethyl)-3-phenoxy-phenyl]-piperidin-1-yl-methanone]	0.28	–
CC(C)N1CCN(Cc2ccc(C(=O)N3CCCCC3)cc2Oc2cccnc2)CC1 [Example 88, [4-(4-Isopropyl-piperazin-1-ylmethyl)-3-(pyridin-3-yloxy)-phenyl]-piperidin-1-yl-methanone]	0.22	–
CNCCNC(=O)c1ccc(CN(C)C)c(Oc2cccnc2)c1 [Example 89, 4-Dimethylaminomethyl-N-(2-methylamino-ethyl)-3-(pyridin-3-yloxy)-benzamide]	1.9	–
CN(C)Cc1ccc(C(=O)NCCN(C)C2CC2)cc1Oc1cccnc1 [Example 90, N-[2-(Cyclopropyl-methyl-amino)-ethyl]-4-dimethylaminomethyl-3-(pyridin-3-yloxy)-benzamide]	0.045	–
COc1cccc(Oc2ccc(C(=O)N3CCN(C(C)C)CC3)cc2CN(C)C(=O)OC(C)(C)C)c1 [Example 91, [5-(4-Isopropyl-piperazine-1-carbonyl)-2-(3-methoxy-phenoxy)-benzyl]-methyl-carbamic acid tert-butyl ester]	0.058	–

Now those with a lower Ki (cloned human H3 receptor), led by results:

Ki (cloned human H3 receptor) [µM]	Ki (Rat SERT) [µM]	Compound
0.026	6	CN(C)C1CCN(C(=O)c2ccc(CNC3CC3)c(Oc3cccnc3)c2)C1 (stereo not shown) [Example 32, [4-Cyclopropylaminomethyl-3-(pyridin-3-yloxy)-phenyl]-(3-dimethylamino-pyrrolidin-1-yl)-methanone]
0.021	–	Cc1ccc(Oc2cc(C(=O)N3CCN(C(C)C)CC3)ccc2CN2CCOCC2)c(C)n1 [Example 83, [3-(2,6-Dimethyl-pyridin-3-yloxy)-4-morpholin-4-ylmethyl-phenyl]-(4-isopropyl-piperazin-1-yl)-methanone]
0.02	0.002	CNCc1cc(N2CCN(C(C)C)CC2)ccc1Oc1ccc(Cl)c(Cl)c1 [Example 47, [2-(3,4-Dichloro-phenoxy)-5-(4-isopropyl-piperazin-1-yl)-benzyl]-methyl-amine]
0.018	0.021	CNCc1cc(C(=O)N2CCN(C3CC3)CC2)ccc1Oc1ccc(Cl)cc1F [Example 22, [4-(4-Chloro-2-fluoro-phenoxy)-3-methylaminomethyl-phenyl]-(4-cyclopropyl-piperazin-1-yl)-methanone]
0.015	0.017	CNCc1ccc(C(=O)N2CCN(C3CC3)CC2)cc1Oc1ccc(Cl)c(Cl)c1 [Example 39, (4-Cyclopropyl-piperazin-1-yl)-[3-(3,4-dichloro-phenoxy)-4-methylaminomethyl-phenyl]-methanone]
0.012	–	COCCN(CCOC)Cc1ccc(C(=O)N2CCN(C(C)C)CC2)cc1Oc1ccccc1 [Example 85, (4-{[Bis-(2-methoxy-ethyl)-amino]-methyl}-3-phenoxy-phenyl)-(4-isopropyl-piperazin-1-yl)-methanone]
0.008	0.001	CNCc1cc(N2CCCN(C(C)C)CC2)ccc1Oc1ccc(SC)cc1 [Example 52, [5-(4-Isopropyl-[1,4]diazepan-1-yl)-2-(4-methylsulfanyl-phenoxy)-benzyl]-methyl-amine]
0.007	0.0009	CNCc1cc(C(=O)N2CC[C@H](N(C)C)C2)ccc1Oc1ccc(SC)cc1 [Example 25, (S)-(3-Dimethylamino-pyrrolidin-1-yl)-[3-methylaminomethyl-4-(4-methylsulfanyl-phenoxy)-phenyl]-methanone]
0.007	0.0001	CNCc1cc(N2CCN(C(C)C)CC2)ccc1Oc1ccc(SC)cc1 [Example 40, [5-(4-Isopropyl-piperazin-1-yl)-2-(4-methylsulfanyl-phenoxy)-benzyl]-methyl-amine]
0.006	0.0003	CNCc1cc(N2CCN(C3CCC3)CC2)ccc1Oc1ccc(SC)cc1 [Example 42, [5-(4-Cyclobutyl-piperazin-1-yl)-2-(4-methylsulfanyl-phenoxy)-benzyl]-methyl-amine]
0.004	0.13	CNCc1ccc(C(=O)N2CCN(C(C)C)CC2)cc1Oc1cccc(Cl)c1 [Example 38, [3-(3-Chloro-phenoxy)-4-methylaminomethyl-phenyl]-(4-isopropyl-piperazin-1-yl)-methanone]
0.001	0.002	CNCc1ccc(C(=O)N2CCN(C(C)C)CC2)cc1Oc1ccc(Cl)c(Cl)c1 [Example 37, [3-(3,4-Dichloro-phenoxy)-4-methylaminomethyl-phenyl]-(4-isopropyl-piperazin-1-yl)-methanone]
